Assay [1] relates to FCA-induced inflammation of the rat hind paw. The experiment in a line: Freund's complete adjuvant (FCA) model of inflammatory pain, reversal of hyperalgesia. It is filed as in vivo. As to conditions: rats. The protocol:
Test Animals: Each experiment uses rats weighing between 200-260 g at the start of the experiment. The rats are group-housed and have free access to food and water at all times, except prior to oral administration of a compound of Formula I when food is removed for 16 hours before dosing. A control group acts as a comparison to rats treated with a compound of Formula I. The control group is administered the carrier for the compound of Formula I. The volume of carrier administered to the control group is the same as the volume of carrier and compound of Formula I administered to the test group.
Inflammatory Pain: To assess the actions of the compounds of Formula I on the treatment or prevention of inflammatory pain the Freund's complete adjuvant (“FCA”) model of inflammatory pain is used. […] 24 hour post injection, the animal is assessed for response to noxious mechanical stimuli by determining the PWT, or to noxious thermal stimuli by determining the PWL, as described below. […] Responses to noxious mechanical or thermal stimuli are then determined 1, 3, 5 and 24 hours post administration. […]
Response to Mechanical Stimuli as an Assessment of Mechanical Hyperalgesia: The paw pressure assay can be used to assess mechanical hyperalgesia. For this assay, hind paw withdrawal thresholds (PWT) to a noxious mechanical stimulus are determined using an analgesymeter (Model 7200, commercially available from Ugo Basile of Italy) as described in C. […] PWT is determined once for each rat at each time point and only the affected (ipsilateral) paw is tested.
Response to Thermal Stimuli as an Assessment of Thermal Hyperalgesia: The plantar test can be used to assess thermal hyperalgesia. For this test, hind paw withdrawal latencies (PWL) to a noxious thermal stimulus are determined using a plantar test apparatus (commercially available from Ugo Basile of Italy) following the technique described by K. Hargreaves et al., “A New and Sensitive Method for Measuring Thermal Nociception in Cutaneous Hyperalgesia,” Pain 32(1):77-88 (1988). […] Three latencies are determined at each time point and averaged. […]

In assay [2] the target is T1, human recombinant TRPV1 (Homo sapiens (Human), UniProt Q8NER1). The experiment in a line: TRPV1 pH-Based Assay (Protocol 2, Ca2+ response in TRPV1/CHO cells, Fura-2). It counts as cell-based. As to conditions: TRPV1/CHO cells, pH 5.0-5.1; read-out: IC50 value by the pH-Based Assay. The essentials:
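CHO cells stably expressing human TRPV1, Fura-2 loaded, given compound (1% DMSO in 10× stock) before acid challenge to final pH 5.0-5.1 (3.2 or 3.3 mM H2SO4). 340/380 nm ratio recorded at 0.5 Hz; maximal ratio after agonist addition versus 16-point baseline used as response.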

Assay [3] deals with T1, human recombinant TRPV1. The experiment in a line: TRPV1 Capsaicin-Based Assay (Protocol 2, TRPV1/CHO cells, Fluo-4, FLIPR). It counts as cell-based. As to conditions: TRPV1/CHO cells, capsaicin 100 nM final; read-out: IC50 value by the Capsaicin-Based Assay. The essentials: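 CHO cells stably expressing human TRPV1 were loaded with 3 μM Fluo-4 for 1 h, then given compounds in HBSS/1 mM CaCl2/20 mM HEPES pH 7.4 with 1% DMSO for 2 min before 100 nM capsaicin (final). FLIPR fluorescence recorded over the full course; curves fitted.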

Some results are limits rather than exact numbers.

T1 sequence (Q8NER1 whole entry): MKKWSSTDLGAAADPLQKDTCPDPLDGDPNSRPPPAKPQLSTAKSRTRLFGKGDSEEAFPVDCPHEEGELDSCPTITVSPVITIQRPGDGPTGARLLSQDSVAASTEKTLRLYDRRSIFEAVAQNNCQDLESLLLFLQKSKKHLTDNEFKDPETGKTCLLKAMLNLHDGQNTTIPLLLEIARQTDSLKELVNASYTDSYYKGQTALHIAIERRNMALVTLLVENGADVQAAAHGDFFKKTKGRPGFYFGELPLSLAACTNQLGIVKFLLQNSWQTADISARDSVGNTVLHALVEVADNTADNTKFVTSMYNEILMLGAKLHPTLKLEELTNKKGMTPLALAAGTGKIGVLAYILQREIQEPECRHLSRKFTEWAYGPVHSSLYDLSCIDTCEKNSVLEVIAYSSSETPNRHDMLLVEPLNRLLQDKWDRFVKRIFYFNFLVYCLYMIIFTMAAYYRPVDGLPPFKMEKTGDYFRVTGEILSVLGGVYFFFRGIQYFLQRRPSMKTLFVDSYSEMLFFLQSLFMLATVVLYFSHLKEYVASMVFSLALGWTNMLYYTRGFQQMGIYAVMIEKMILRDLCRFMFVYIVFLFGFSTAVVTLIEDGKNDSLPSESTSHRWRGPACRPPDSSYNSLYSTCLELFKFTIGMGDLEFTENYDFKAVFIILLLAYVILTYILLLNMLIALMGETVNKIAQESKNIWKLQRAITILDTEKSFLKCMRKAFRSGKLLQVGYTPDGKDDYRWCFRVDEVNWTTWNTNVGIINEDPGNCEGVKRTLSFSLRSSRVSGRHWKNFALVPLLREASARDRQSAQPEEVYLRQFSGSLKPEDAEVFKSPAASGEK

As for `Cc1ccc2nc(NC(=O)N3CCN(c4ncc(C[C@@H](O)CO)cc4F)C[C@@H]3C)sc2c1` [AEM], the “Percentage reversal of hyperalgesia, % Reversal (3 mg/Kg, 3 hours post administration)” value in assay [1] is recorded as 59.7%. In assay [2], the half-inhibitory concentration (IC50) – broadly, the concentration at which inhibition is half-maximal – was not above 50 nM.
As to `C[C@H]1CN(c2ncc(C[C@@H](O)CO)cc2C(F)(F)F)CCN1C(=O)Nc1nc2ccc(F)cc2s1` [AGU], the “Percentage reversal of hyperalgesia, % Reversal (3 mg/Kg, 3 hours post administration)” value in assay [1] is listed as 71%. In addition, the IC50 in assay [3] and in assay [2] was not above 50 nM in each case.

These data come from patent US8921373B2, “Compounds having TRPV1 antagonistic activity and uses thereof” (Shionogi & Co., Ltd., priority 2010, dated 2014).
